24 compounds from US8283361B2 (AstraZeneca AB, priority 2008, dated 2012) can be followed below.

S. aureus GyrB ATPase, sequence (P0A0K8 whole entry): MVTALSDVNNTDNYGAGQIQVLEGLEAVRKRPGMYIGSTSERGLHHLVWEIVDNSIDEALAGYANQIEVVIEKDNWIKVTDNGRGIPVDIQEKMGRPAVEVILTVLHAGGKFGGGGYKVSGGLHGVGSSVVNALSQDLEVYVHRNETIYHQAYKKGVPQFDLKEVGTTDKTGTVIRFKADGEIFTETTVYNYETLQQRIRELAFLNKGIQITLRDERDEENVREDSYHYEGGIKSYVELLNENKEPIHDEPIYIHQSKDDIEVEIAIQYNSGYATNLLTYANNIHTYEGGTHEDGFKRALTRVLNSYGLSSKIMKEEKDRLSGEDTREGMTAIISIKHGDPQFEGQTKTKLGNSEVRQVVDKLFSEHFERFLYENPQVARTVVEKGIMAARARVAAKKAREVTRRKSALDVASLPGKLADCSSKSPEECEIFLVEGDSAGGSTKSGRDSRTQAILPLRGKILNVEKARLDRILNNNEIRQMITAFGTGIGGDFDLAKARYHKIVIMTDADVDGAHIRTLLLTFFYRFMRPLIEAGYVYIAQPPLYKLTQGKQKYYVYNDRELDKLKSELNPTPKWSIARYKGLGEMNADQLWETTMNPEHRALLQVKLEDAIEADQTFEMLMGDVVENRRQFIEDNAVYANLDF
S. aureus GyrB ATPase, sequence (P0AES4 whole entry, further chain): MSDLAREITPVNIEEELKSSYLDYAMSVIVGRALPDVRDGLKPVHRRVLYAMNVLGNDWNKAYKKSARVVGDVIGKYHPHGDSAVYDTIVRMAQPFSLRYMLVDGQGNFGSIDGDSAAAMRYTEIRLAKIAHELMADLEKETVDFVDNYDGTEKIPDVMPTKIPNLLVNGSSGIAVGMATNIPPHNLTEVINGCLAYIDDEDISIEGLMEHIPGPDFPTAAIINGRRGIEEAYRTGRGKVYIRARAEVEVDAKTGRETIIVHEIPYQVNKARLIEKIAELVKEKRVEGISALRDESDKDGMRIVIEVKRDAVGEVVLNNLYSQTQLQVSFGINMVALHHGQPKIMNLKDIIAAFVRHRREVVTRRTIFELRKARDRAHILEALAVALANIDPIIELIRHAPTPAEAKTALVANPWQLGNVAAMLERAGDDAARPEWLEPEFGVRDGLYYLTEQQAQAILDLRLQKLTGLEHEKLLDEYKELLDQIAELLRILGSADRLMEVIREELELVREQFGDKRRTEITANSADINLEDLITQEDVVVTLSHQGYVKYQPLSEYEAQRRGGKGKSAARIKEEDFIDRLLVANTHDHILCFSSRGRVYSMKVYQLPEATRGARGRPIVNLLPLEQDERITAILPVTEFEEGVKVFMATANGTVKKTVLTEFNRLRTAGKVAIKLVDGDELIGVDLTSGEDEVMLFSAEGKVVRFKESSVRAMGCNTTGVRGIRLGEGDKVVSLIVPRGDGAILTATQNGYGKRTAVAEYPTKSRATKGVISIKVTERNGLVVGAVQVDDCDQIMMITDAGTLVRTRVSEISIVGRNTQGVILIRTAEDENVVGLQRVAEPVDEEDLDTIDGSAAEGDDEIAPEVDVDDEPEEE

The target of one experiment is S. aureus GyrB ATPase (Staphylococcus aureus, UniProt P0A0K8). In words: biochemical. The note with it: compound at 1 μM; one value per test if tested more than once; 1 µM. As to the method:
S. aureus GyrB ATPase Inhibition Activity: Compounds may be tested for inhibition of S. aureus GyrB ATPase activity using an ammonium molybdate/malachite green-based phosphate detection assay (Lanzetta, P. A., L. J. Alvarez, P. S. Reinach, and O. A. Candia, 1979, 100: 95-97). Assays can be performed in multiwell plates in 30 μl reactions containing: 50 mM Hepes buffer pH 7.5, 75 mM ammonium acetate, 8.0 mM magnesium chloride, 0.5 mM ethylenediaminetetraacetic acid, 5% glycerol, 1.0 mM 1,4-Dithio-DL-threitol, 200 nM bovine serum albumin, 1.0 μg/m1 sheared salmon sperm DNA, 250 pM E. coli GyrA, 250 pM S. aureus GyrB, 250 μM ATP, and compound in dimethylsulfoxide. Reactions can be quenched with 30 μl of ammonium molybdate/malachite green detection reagent containing 1.2 mM malachite green hydrochloride, 8.5 mM ammonium molybdate tetrahydrate, and 1 M hydrochloric acid. […] An IC50 measurement of compound potency for each compound can be determined from reactions performed in the presence of 10 different compound concentrations.
For `CCNC(=O)Nc1cc(-c2nc(C(F)(F)F)cs2)c(-c2ccc3c(=O)c(C(=O)NC)cn(CC)c3c2)cn1` [Example 33, 1-ethyl-7-(6-(3-ethylureido)-4-(4-(trifluoromethyl)thiazol-2-yl)pyridin-3-yl)-N-methyl-4-oxo-1,4-dihydroquinoline-3-carboxamide], the “% Inhibition of S. aureus GyrB ATPase” value stood at 109%.

Staying with this experiment, now noted: compound at 1 μM; one value per test if tested more than once; read-out: % Inhibition of S. aureus GyrB ATPase.
In the case of `CCNC(=O)Nc1cc(-c2nc(C(F)(F)F)cs2)c(-c2ccc3c(c2)c(=O)c(C(=O)O)cn3C2CN(C)C2)cn1` [Example 24, 6-(6-(3-ethylureido)-4-(4-(trifluoromethyl)thiazol-2-yl)pyridin-3-yl)-1-(1-methylazetidin-3-yl)-4-oxo-1,4-dihydroquinoline-3-carboxylic acid], the inhibition at 1 µM is 99%.

In the case of `CCNC(=O)Nc1cc(-c2nc(C(F)(F)F)cs2)c(-c2ccc3c(=O)c(C(=O)O)cn(CCC(C)C)c3c2)cn1` [Example 25, 7-{6-[(ethylcarbamoyl)amino]-4-[4-(trifluoromethyl)-1,3-thiazol-2-yl]pyridin-3-yl}-1-(3-methylbutyl)-4-oxo-1,4-dihydroquinoline-3-carboxylic acid], the inhibition at 1 µM amounted to 99%. As for `CCCn1cc(C(=O)O)c(=O)c2ccc(-c3cnc(NC(=O)NCC)cc3-c3nc(C(F)(F)F)cs3)cc21` [Example 27, 7-{6-[(ethylcarbamoyl)amino]-4-[4-(trifluoromethyl)-1,3-thiazol-2-yl]pyridin-3-yl}-4-oxo-1-propyl-1,4-dihydroquinoline-3-carboxylic acid], the inhibition at 1 µM worked out at 99%.

Regarding `CCNC(=O)Nc1cc(-c2nc(C(F)(F)F)cs2)c(-c2ccc3c(=O)c(C(=O)O)cn(Cc4ccccc4)c3c2)cn1` [Example 28, 1-benzyl-7-{6-[(ethylcarbamoyl)amino]-4-[4-(trifluoromethyl)-1,3-thiazol-2-yl]pyridin-3-yl}-4-oxo-1,4-dihydroquinoline-3-carboxylic acid], the inhibition at 1 µM came to 97%. Still for that read-out and setting: next, `CCNC(=O)Nc1cc(-c2nc(C(F)(F)F)cs2)c(-c2ccc3c(=O)c(C(=O)O)cn(CCO)c3c2)cn1` [Example 30, 7-{6-[(ethylcarbamoyl)amino]-4-[4-(trifluoromethyl)-1,3-thiazol-2-yl]pyridin-3-yl}-1-(2-hydroxyethyl)-4-oxo-1,4-dihydroquinoline-3-carboxylic acid]: 95%; `CCNC(=O)Nc1cc(-c2nc(C(F)(F)F)cs2)c(-c2ccc3c(=O)c(C(=O)O)cn(CC4CC4)c3c2)cn1` [Example 32, 1-(cyclopropylmethyl)-7-{6-[(ethylcarbamoyl)amino]-4-[4-(trifluoromethyl)-1,3-thiazol-2-yl]pyridin-3-yl}-4-oxo-1,4-dihydroquinoline-3-carboxylic acid]: 98%; `CCNC(=O)Nc1cc(-c2nc(C(F)(F)F)cs2)c(-c2ccc3c(=O)c(C(=O)NC)cn(CC)c3c2)cn1` [Example 33, 1-ethyl-7-(6-(3-ethylureido)-4-(4-(trifluoromethyl)thiazol-2-yl)pyridin-3-yl)-N-methyl-4-oxo-1,4-dihydroquinoline-3-carboxamide]: 97%. For `CCNC(=O)Nc1cc(-c2nc(C(F)(F)F)cs2)c(-c2ccc3c(c2)c(=O)c(C(=O)NC)cn3CC)cn1` [Example 34, 1-ethyl-6-(6-(3-ethylureido)-4-(4-(trifluoromethyl)thiazol-2-yl)pyridin-3-yl)-N-methyl-4-oxo-1,4-dihydroquinoline-3-carboxamide], the inhibition at 1 µM was 100%. In the case of `CCNC(=O)Nc1cc(-c2nc(CC)cs2)c(-c2ccc3c(=O)c(C(=O)NC)cn(CC)c3c2)cn1` [Example 36, 1-ethyl-7-(4-(4-ethylthiazol-2-yl)-6-(3-ethylureido)pyridin-3-yl)-N-methyl-4-oxo-1,4-dihydroquinoline-3-carboxamide], the inhibition at 1 µM worked out at 64%. On the same count and under the same terms, next, `CCNC(=O)Nc1cc(-c2nc(CC)cs2)c(-c2ccc3c(c2)c(=O)c(C(=O)NC)cn3CC)cn1` [Example 37, 1-ethyl-6-(4-(4-ethylthiazol-2-yl)-6-(3-ethylureido)pyridin-3-yl)-N-methyl-4-oxo-1,4-dihydroquinoline-3-carboxamide]: 96%; `CCNC(=O)Nc1cc(-c2nc(CC)cs2)c(-c2cc3c4c(c2)c(=O)c(C(=O)NC)cn4CCO3)cn1` [Example 38, 9-(4-(4-ethylthiazol-2-yl)-6-(3-ethylureido)pyridin-3-yl)-N-methyl-7-oxo-3,7-dihydro-2H-[1,4]oxazino[2,3,4-ij]quinoline-6-carboxamide]: 99%; `CCNC(=O)Nc1cc(-c2nc(-c3ccccc3)cs2)c(-c2ccc3c(=O)c(C(=O)NC)cn(CC)c3c2)cn1` [Example 39, 1-ethyl-7-(6-(3-ethylureido)-4-(4-phenylthiazol-2-yl)pyridin-3-yl)-N-methyl-4-oxo-1,4-dihydroquinoline-3-carboxamide]: 101%. Still for that read-out and setting: as for `CCNC(=O)Nc1cc(-c2nc(-c3ccccc3)cs2)c(-c2cc3c4c(c2)c(=O)c(C(=O)NC)cn4CCO3)cn1` [Example 41, 9-(6-(3-ethylureido)-4-(4-phenylthiazol-2-yl)pyridin-3-yl)-N-methyl-7-oxo-3,7-dihydro-2H-[1,4]oxazino[2,3,4-ij]quinoline-6-carboxamide], the figure is 105%. As to `CCNC(=O)Nc1cc(-c2nc(C(F)(F)F)cs2)c(-c2ccc3c(=O)c(C(=O)OCC)cn(CC)c3c2)cn1` [Example 42, Ethyl 1-ethyl-7-(6-(3-ethylureido)-4-(4-trifluoromethylthiazol-2-yl)pyridin-3-yl)-4-oxo-1,4-dihydroquinoline-3-carboxylate], the inhibition at 1 µM came to 113%.

For `CCNC(=O)Nc1cc(-c2nc(-c3ccccc3)cs2)c(-c2ccc3c(=O)c(C(=O)OCC)cn(CC)c3c2)cn1` [Example 44, ethyl 1-ethyl-7-(6-(3-ethylureido)-4-(4-phenylthiazol-2-yl)pyridin-3-yl)-4-oxo-1,4-dihydroquinoline-3-carboxylate], the inhibition at 1 µM came out at 98%.

With `CCNC(=O)Nc1cc(-c2nc(C(F)(F)F)cs2)c(-c2cc3c4c(c2)c(=O)c(C(=O)OCC)cn4CCO3)cn1` [Example 48, ethyl 9-(6-(3-ethylureido)-4-(4-trifluoromethylthiazol-2-yl)pyridin-3-yl)-7-oxo-3,7-dihydro-2H-[1,4]oxazino[2,3,4-ij]quinoline-6-carboxylate], the inhibition at 1 µM was 106%. In the case of `CCNC(=O)Nc1cc(-c2nc(C(F)(F)F)cs2)c(-c2ccc3c(c2)c(=O)c(C(=O)O)cn3[C@@H](C)CO)cn1` [Example 71, (S)-6-(6-(3-ethylureido)-4-(4-(trifluoromethyl)thiazol-2-yl)pyridin-3-yl)-1-(1-hydroxypropan-2-yl)-4-oxo-1,4-dihydroquinoline-3-carboxylic acid], the inhibition at 1 µM was 107%. As to `CCNC(=O)Nc1cc(-c2nc(C(F)(F)F)cs2)c(-c2ccc3c(c2)c(=O)c(C(=O)O)cn3[C@H](C)CO)cn1` [Example 72, (R)-6-(6-(3-ethylureido)-4-(4-(trifluoromethyl)thiazol-2-yl)pyridin-3-yl)-1-(1-hydroxypropan-2-yl)-4-oxo-1,4-dihydroquinoline-3-carboxylic acid], the inhibition at 1 µM came to 103%. Still for that read-out and setting: next, `CCNC(=O)Nc1cc(-c2nc(C(F)(F)F)cs2)c(-c2ccc3c(c2)c(=O)c(C(=O)O)cn3[C@H](CO)[C@@H](C)O)cn1` [Example 73, 1-((2R,3R)-1,3-dihydroxybutan-2-yl)-6-(6-(3-ethylureido)-4-(4-(trifluoromethyl)thiazol-2-yl)pyridin-3-yl)-4-oxo-1,4-dihydroquinoline-3-carboxylic acid]: 105%. Same read-out and setting: next, `CCNC(=O)Nc1cc(-c2nc(C(F)(F)F)cs2)c(-c2ccc3c(c2)c(=O)c(C(=O)O)cn3[C@H](CO)Cc2ccccc2)cn1` [Example 74, (S)-6-(6-(3-ethylureido)-4-(4-(trifluoromethyl)thiazol-2-yl)pyridin-3-yl)-1-(1-hydroxy-3-phenylpropan-2-yl)-4-oxo-1,4-dihydroquinoline-3-carboxylic acid]: 103%; `CCNC(=O)Nc1cc(-c2nc(C(F)(F)F)cs2)c(-c2ccc3c(c2)c(=O)c(C(=O)O)cn3C(CO)CO)cn1` [Example 75, 1-(1,3-dihydroxypropan-2-yl)-6-(6-(3-ethylureido)-4-(4-(trifluoromethyl)thiazol-2-yl)pyridin-3-yl)-4-oxo-1,4-dihydroquinoline-3-carboxylic acid]: 102%; `CCNC(=O)Nc1cc(-c2nc(C(F)(F)F)cs2)c(-c2ccc3c(c2)c(=O)c(C(=O)O)cn3[C@@H](CO)C(C)(C)C)cn1` [Example 76, (R)-6-(6-(3-ethylureido)-4-(4-(trifluoromethyl)thiazol-2-yl)pyridin-3-yl)-1-(1-hydroxy-3,3-dimethylbutan-2-yl)-4-oxo-1,4-dihydroquinoline-3-carboxylic acid]: 110%. The same measure, in the same setting: as for `CCNC(=O)Nc1cc(-c2nc(C(F)(F)F)cs2)c(-c2ccc3c(c2)c(=O)c(C(=O)O)cn3[C@@H](CO)Cc2ccc(O)cc2)cn1` [Example 77, (R)-6-(6-(3-ethylureido)-4-(4-(trifluoromethyl)thiazol-2-yl)pyridin-3-yl)-1-(1-hydroxy-3-(4-hydroxyphenyl)propan-2-yl)-4-oxo-1,4-dihydroquinoline-3-carboxylic acid], the figure is 110%. For the compound `CCNC(=O)Nc1cc(-c2nc(C(F)(F)F)cs2)c(-c2ccc3c(c2)c(=O)c(C(=O)O)cn3[C@H](CO)C2CCCCC2)cn1` [Example 78, (S)-1-(1-cyclohexyl-2-hydroxyethyl)-6-(6-(3-ethylureido)-4-(4-(trifluoromethyl)thiazol-2-yl)pyridin-3-yl)-4-oxo-1,4-dihydroquinoline-3-carboxylic acid], the inhibition at 1 µM was determined as 102%.
